Measurements taken from article doi:10.1101/2025.05.02.651913 (bioRxiv, 2025).

Assays:
Mpox-related lesions = details: human, in vivo; cited from earlier work
MPXV Clade IIb = type: cell-based, Mpox virus (MPXV)
vaccinia virus = details: cited from earlier work
[1] = test system: MPXV strain hMPXV/USA/MA001/2022 (Lineage B.1, Clade IIb); type: cell-based, Mpox virus (MPXV)
cowpox virus = details: cited from earlier work
MPXV [2] = details: cited from earlier work
[3] = in vivo; cited from earlier work
MPXV [4] = details: in vivo; cited from earlier work

**Q.** For `O=C(NN1C(=O)[C@@H]2[C@@H]3C=C[C@@H]([C@H]4C[C@@H]34)[C@@H]2C1=O)c1ccc(C(F)(F)F)cc1` [Tecovirimat], which “time to resolution of Mpox-related lesions” value (Mpox-related lesions) is on record?
**A.** The value was “did not reduce the time to resolution of Mpox-related lesions”.

**Q.** What about the “antiviral activity against MPXV Clade IIb” value (MPXV Clade IIb) of the same compound?
**A.** Its value is “did not exhibit strong antiviral activity”.

**Q.** Which results are given for `COc1cc2ncnc(Nc3ccc(F)c(Cl)c3)c2cc1OCCCN1CCOCC1` [Gefitinib]?
**A.** vaccinia virus replication (vaccinia virus): reduce vaccinia and cowpox virus replication; Duplicate of Duplicate of Hits: No CPE [1]: 1; cowpox virus replication (cowpox virus): reduce vaccinia and cowpox virus replication

**Q.** With `NC(=O)c1ncn([C@@H]2O[C@H](CO)[C@@H](O)[C@H]2O)n1` [Ribavirin] as the compound, how does the “MPXV replication in vitro” value (MPXV [2]) read?
**A.** The value was “block MPXV replication”.

**Q.** What about the “adverse effect in humans” value [3] of the same compound?
**A.** The value was “severe bone marrow suppression”.

**Q.** And the “MPXV replication in mouse models” value (MPXV [4])?
**A.** Its value is “block MPXV replication”.
